Assay results reported in patent US6399764B1, “DNA molecule encoding for cellular uptake of mycobacterium tuberculosis and uses thereof” (priority 1997, dated 2002).
“Also recorded” adds a separate entry of the source.

System: HeLa cells
Assay: Inhibition of rMcep1-coated fluorescent latex microsphere uptake
Type: cell-based

Structure (SMILES): C=C1[C@@H](C)[C@H]2[C@H](Cc3ccccc3)NC(=O)[C@]23[C@H](OC(C)=O)/C=C/[C@@](C)(O)C(=O)[C@@H](C)C/C=C/[C@H]3[C@@H]1O [Cytochalasin D]
- inhibition of association/uptake of rMcep1-coated fluorescent beads (cytochalasin D 0.1-5 mg/ml, 1 h preincubation at 37° C., FIG. 5D): blocked the association of the protein-coated beads in a dose-dependent manner
- inhibition of association/uptake of rMcep1-coated fluorescent beads (cytochalasin D 0.1-5 mg/ml, 1 h preincubation at 37° C., FIG. 5D, listed as cytochalasin D): blocked uptake of the fluorescent beads, but the inhibition was not complete

Structure (SMILES): CN(C)c1cccc2c(S(=O)(=O)NCCCCCN)cccc12 [MDC, Monodansylcadaverine]
- inhibition of association/uptake of rMcep1-coated fluorescent beads (MDC 1-100 mm, 3 h preincubation at 37° C., FIG. 5F): partly inhibited the association
- inhibition of association/uptake of rMcep1-coated fluorescent beads (MDC 1-100 mm, 3 h preincubation at 37° C., FIG. 5F, listed as Monodansylcadaverine (MDC)): partly inhibited the bead uptake

Structure (SMILES): COC(=O)Nc1nc2ccc(C(=O)c3cccs3)cc2[nH]1 [Nocodazole]
- inhibition of association/uptake of rMcep1-coated fluorescent beads (nocodazole up to 5 mg/ml, 1 hr preincubation at 4° C. then 5 hrs at 37° C., FIG. 5E): inhibited the association of the beads in a dose dependent fashion; also recorded: had a similar inhibitory effect at noncytotoxic concentrations
